Test results as given in patent US5994387A, “Pyrrolidinyl methyl indole salt” (Pfizer Inc., priority 1995, dated 1999).
Where two headings read alike, the source gives them in different places.

What was measured:
Assay type in all cases: physicochemical
[1] = Saturated solubility of free base and fumarate salt in water (HPLC); details: for solubility at 16 h: saturated solubility in water (MilliQ), 16 hours at room temperature; for Solubility in words: water, qualitative statement, fumarate
Description: For both the free base and fumarate salt, approximately 50 mg of solid bulk material was accurately weighed into a 1.5 mL plastic "Eppendorf" tube (Sigma). 0.3 mL of water (MilliQ) was then added to the tubes. The tubes were then vortex mixed at 1,300 rpm ("LKB") for 16 hours at room temperature. The supematant was separated from undissolved material by centrifugation at 13,000 rpm for 20 minutes ("Heraeus Biofuge 13"), then diluted and assayed for Compound (I) by HPLC. This assay used a mobile phase of acetonitrile (20%), water (80%) and trifluoroacetic acid (0.1%) and a 150×4.2 mm "Zorbax SB CN" column at 40° C. with U.V. detection at 220 nm.

[2] = Hygroscopicity: moisture uptake in moisture microbalance; details: for Hygroscopicity at 30° C. and 90% RH: moisture uptake; for Hygroscopicity in words: qualitative statement, fumarate
Description: Approximately 10 mg of each of the free base and fumarate salts of Compound (I) were exposed to 8 different relative humidities (RHs) between 0 and 94% at 30° C. in the Surface Measurement Systems Ltd moisture microbalance. The samples were allowed to reach equilibrium at each of these RHs and the change in weight from the initial value when the sample was first placed in the balance was calculated. The data was used to construct the moisture sorption isotherms for the materials. The hygroscopicity of the materials was compared by calculating the moisture uptake at 90%RH, which was as follows: […]

[3] = Solubility in the 90% PEG 400 / 10% water formulation (observation); details: 1 mg/mL in 90% PEG 400 and 10% water
From the text: (§1) Soft gelatin capsule formulations are an attractive delivery system for Compound (I) as they improve in vivo dissolution and content uniformity on manufacture. The compound (I) can be formulated as a liquid fill soft gelatin capsule. However, oxidative degradation often limits the shelf life of such formulations. PEG 400 is representative of a typical liquid fill diluent used for such a purpose. The following study was designed to determine whether oxidative degradation occurs with Compound (I) in such a formulation, and whether the fumarate salt provides protection against oxidative degradation. 1 mg/mL solutions of Compound (I) as the free base, Compound (I) as the hydrochloride salt and Compound (I) as the fumarate salt were prepared in 90% PEG 400 (BDH) and 10% water (Milli-Q). 10% water was added to the formulations to mimic the ingress of water from the soft gelatin capsule shell. […] However, for ease of solution preparation, the hydrochloride salt was used instead.

[4] = Solid-state (bulk) stability after 9 weeks storage, HPLC; design: key to % Degradation (% peak area @ 50° C.-% peak area @ 4° C.): --: No peaks present at this relative retention time; details: for degraded at 1512 h: solid state, read-out: % Degradation (% peak area @ 50° C.-% peak area @ 4° C.); for Solid state stability in words: qualitative statement, fumarate
Description: Approximately 1 mg of each of the free base, hydrochloride, hydrobromide and fumarate salts of Compound (I) were accurately weighed into small glass vials. These were stored for 9 weeks at each of 4° C./ambient humidity, 40° C./ambient humidity, 40° C./75% RH and 50° C./ambient humidity. The samples were then assayed using the following stability indicating HPLC method. A mobile phase consisting of 0.05 M potassium dihydrogen orthophosphate adjusted to pH2 with phosphoric acid (90%) and acetonitrile (far UV) (10%), was pumped through a "Zorbax SB-CN" 150×4.6 mm column (40° C.) at a flow rate of 1 ml/min with UV detection at 225 nm.
The samples with the exception of the free base were prepared by dissolving them in the mobile phase in a 25 ml volumetric flask. The free base was dissolved in a few drops of methanol before diluting with the mobile phase.
The stability of the samples was quantified by investigating the appearance of new peaks in the chromatograms of stored samples and the increase in peaks present compared to control samples stored at 4° C.

[5] = Oxidative stability in 90% PEG 400 with and without hydrogen peroxide; details: for Stability to oxidative degradation, in words: qualitative statement, fumarate
From the text: as §1
Hydrogen peroxide (BDH) to a final concentration of 0.3% w/w was added to the formulations to provide an oxidative stress. A control formulation without hydrogen peroxide was also used in the study. 1 mL of each formulation was sealed into 2 mL HPLC vials ("Cromacol") and placed in a thermostated oven at 40° C. Samples were taken at 1.5 and 3 days and stored frozen (-20° C.) prior to assay. The samples were diluted and analysed using the stability indicating HPLC assay as described above. Degradation was expressed as % Compound (I) remaining.

[6] = relative retention time 0.59, 9 weeks at 50° C.
[7] = relative retention time 0.77, 9 weeks at 50° C.
[8] = relative retention time 0.85, 9 weeks at 50° C.
[9] = relative retention time 0.40, 9 weeks at 50° C.
[10] = relative retention time 0.60, 9 weeks at 50° C.
[11] = relative retention time 0.91, 9 weeks at 50° C.
[12] = relative retention time 1.66, 9 weeks at 50° C.
[13] = relative retention time 1.93, 9 weeks at 50° C.

With CNS(=O)(=O)Cc1ccc2[nH]cc(C[C@H]3CCCN3C)c2c1 [Free base, (R)-5-(methylaminosulphonylmethyl)-3-(N-methylpyrrolidin-2-ylmethyl)-1H-indole] the solubility at 16 h [1] was 0.12 mg/mL, the “Hygroscopicity at 30° C. and 90% RH” value [2] was 0.2 % w/w and the “Solubility in the PEG 400 formulation” value [3] was “not very soluble”. For the same molecule, the “New drug related peaks” value ([4]; 9 weeks at 50° C.) was 4 new drug related peaks, the “Solid-state degradation in words” value ([4]; 9 weeks at 50° C.) was “measurable degradation” and the “total increase in % peak area” value ([4]; all peaks, 9 weeks at 50° C. vs 4° C., 90720 min) was 0.32%. For the same molecule, the “% Degradation (% peak area @ 50° C.-% peak area @ 4° C.)” value (“% Degradation” for short) [4, 6] was “--”, the “% Degradation” value [4, 7] was “--” and the “% Degradation” value [4, 8] was “--”. For the same molecule, the degraded at 1512 h [4, 9] was 0.05%, the degraded at 1512 h [4, 10] was 0.01% and the degraded at 1512 h [4, 11] was 0.02%. It also gave a degraded at 1512 h [4, 12] of 0.17% and a degraded at 1512 h [4, 13] of 0.03%.

For CNS(=O)(=O)Cc1ccc2[nH]cc(C[C@H]3CCCN3C)c2c1.O=C(O)/C=C/C(=O)O [Fumarate salt, (R)-5-(methylaminosulphonylmethyl)-3-(N-methylpyrrolidin-2-ylmethyl)-1H-indole fumarate], the “Degradation rate compared with the hydrochloride” value ([5]; 90% PEG 400, 40° C., both time points (1.5 and 3 days)) was “significantly lower (analysis of variance p<0.001) than the hydrochloride at both time points”, the “Stability to oxidative degradation, in words” value [5] was “significant protection against degradation in the formulation” and the “Stability to oxidative degradation, in words” value ([5]; listed as fumarate salt of (I)) was “unexpectedly improved stability to oxidative degradation”. The solubility at 16 h [1] was 67.5 mg/mL, the Solubility in words [1] was “Increased solubility” and the Solubility in words ([1]; listed as fumarate salt of (I)) was “excellent solubility”. For the same molecule, the “Hygroscopicity at 30° C. and 90% RH” value [2] was 0.2 % w/w, the Hygroscopicity in words [2] was “not accompanied by increased hygroscopicity” and the Hygroscopicity in words ([2]; listed as fumarate salt of (I)) was “non-hygroscopic”. The “Solid-state degradation in words” value ([4]; 9 weeks at 50° C.) was “had not degraded at all after 9 weeks 50 °C”, the “Solid state stability in words” value [4] was “most stable in the solid state” and the “Solid state stability in words” value ([4]; listed as fumarate salt of (I)) was “excellent solubility and solid state stability”. For the same molecule, the “% Degradation” value [4, 9] was “--”, the “% Degradation” value [4, 10] was “--” and the “% Degradation” value [4, 7] was “--”. For the same molecule, the “% Degradation” value [4, 8] was “--”, the “% Degradation” value [4, 11] was “--” and the “% Degradation” value [4, 12] was “--”. The “% Degradation” value [4, 13] was “--” and the degraded at 1512 h [4, 6] was 0%.
